Test results: the supplement of paper PMC8617591

How the values were obtained:
[1] = system: Mycobacterium tuberculosis Erdman (autoluminescent); experiment: Einf, fitted maximum growth inhibition of combination (fraction); higher = stronger maximal inhibition
Protocol: (§1)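 DiaMOND equipotent two-drug combination dose responses against autoluminescent M. tuberculosis Erdman in 8 in vitro models. Read-out is OD600, or luminescence for the intracellular and dormancy models, normalised to untreated wells. Hill-fit Einf, AUC25 and GRinf are potency metrics; FIC50 and FIC90 are Loewe-additivity fractional inhibitory concentrations, given as log2 (negative = synergy). Replicates are averaged.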

[2] = system: Mycobacterium tuberculosis Erdman (autoluminescent); experiment: GRinf, maximum normalised growth rate inhibition (unitless (-1 to 1)); higher = less effect (negative = killing)
Protocol: as §1

[3] = system: Mycobacterium tuberculosis Erdman (autoluminescent); experiment: FIC90 (Loewe) at 90% inhibition (log2); higher = more antagonistic
Protocol: as §1

[4] = system: Mycobacterium tuberculosis Erdman (autoluminescent); experiment: FIC50 (Loewe) at 50% inhibition (log2); higher = more antagonistic
Protocol: as §1

[5] = system: Mycobacterium tuberculosis Erdman (autoluminescent); experiment: AUC25, normalised area under dose response up to IC25 (fraction (0-1)); higher = more potent at low dose
Protocol: as §1

CC(C)/N=c1\cc2n(-c3ccc(Cl)cc3)c3ccccc3nc-2cc1Nc1ccc(Cl)cc1 [clofazimine] + NC(=O)c1cnccn1 [pyrazinamide]
Conditions	AUC25, [5]	Einf, [1]	FIC50, [4]	FIC90, [3]	GRinf, [2]
in vitro model: acidic pH 5.7, time point: constant (~7 days, model-specific)	0.0987	0.807	-0.0856	–	-0.109
in vitro model: acidic pH 5.7, time point: terminal (~4-5 doublings, model-specific)	0.106	0.98	-0.519	-0.794	-0.397
in vitro model: intracellular J774, time point: constant = terminal	–	0.996	–	0.158	-0.38

Conditions	AUC25, [5]	Einf, [1]	FIC50, [4]	FIC90, [3]	GRinf, [2]
in vitro model: butyrate, time point: constant (~7 days, model-specific)	0.116	0.922	-0.639	0.884	-0.0318
in vitro model: butyrate, time point: terminal (~4-5 doublings, model-specific)	0.0881	0.958	-0.58	-0.361	-0.00889
in vitro model: cholesterol 0.05 mM, time point: constant (~7 days, model-specific)	0.146	0.653	–	–	-0.153
in vitro model: cholesterol 0.05 mM, time point: terminal (~4-5 doublings, model-specific)	0.143	0.923	0.474	–	-0.338
in vitro model: cholesterol-high 0.2 mM, time point: constant (~7 days, model-specific)	0.116	0.896	0.166	–	-0.475
in vitro model: cholesterol-high 0.2 mM, time point: terminal (~4-5 doublings, model-specific)	0.0971	1	0.233	0.114	-0.881
in vitro model: dormancy (butyrate + nitrate, low O2), time point: constant (~7 days, model-specific)	0.12	0.935	-0.722	-0.326	-0.0386
in vitro model: dormancy (butyrate + nitrate, low O2), time point: terminal (~4-5 doublings, model-specific)	0.0754	0.989	-0.936	-0.669	-0.387
in vitro model: standard 7H9 glycerol, time point: constant = terminal	0.11	0.96	-0.68	–	-0.102
in vitro model: valerate, time point: constant (~7 days, model-specific)	0.143	0.885	-0.679	–	-0.366
in vitro model: valerate, time point: terminal (~4-5 doublings, model-specific)	0.0829	0.938	0.0438	0.152	0.0893

CC(C)/N=c1\cc2n(-c3ccc(Cl)cc3)c3ccccc3nc-2cc1Nc1ccc(Cl)cc1 [clofazimine] + NNC(=O)c1ccncc1 [isoniazid]
Conditions	AUC25, [5]	Einf, [1]	FIC50, [4]	FIC90, [3]	GRinf, [2]
in vitro model: acidic pH 5.7, time point: constant (~7 days, model-specific)	0.1	0.747	0.122	–	0.074
in vitro model: acidic pH 5.7, time point: terminal (~4-5 doublings, model-specific)	0.0893	0.942	0.116	0.154	-0.114
in vitro model: intracellular J774, time point: constant = terminal	–	0.951	–	0.406	-0.209

Conditions	AUC25, [5]	Einf, [1]	FIC50, [4]	FIC90, [3]	GRinf, [2]
in vitro model: butyrate, time point: constant (~7 days, model-specific)	0.0814	0.947	0.425	0.813	-0.079
in vitro model: butyrate, time point: terminal (~4-5 doublings, model-specific)	0.0801	0.988	0.35	0.54	-0.117
in vitro model: cholesterol 0.05 mM, time point: constant (~7 days, model-specific)	0.114	0.719	0.223	–	-0.06
in vitro model: cholesterol 0.05 mM, time point: terminal (~4-5 doublings, model-specific)	0.126	0.928	0.688	0.0937	-0.181
in vitro model: cholesterol-high 0.2 mM, time point: constant (~7 days, model-specific)	0.118	0.93	0.123	-0.0588	-0.856
in vitro model: cholesterol-high 0.2 mM, time point: terminal (~4-5 doublings, model-specific)	0.106	0.999	0.197	0.419	-0.882
in vitro model: dormancy (butyrate + nitrate, low O2), time point: constant (~7 days, model-specific)	0.0958	0.92	-0.176	-0.0674	0.255
in vitro model: dormancy (butyrate + nitrate, low O2), time point: terminal (~4-5 doublings, model-specific)	0.058	0.981	-0.116	-0.0457	-0.0683
in vitro model: standard 7H9 glycerol, time point: constant = terminal	0.105	0.964	-0.0807	0.0617	-0.146
in vitro model: valerate, time point: constant (~7 days, model-specific)	0.144	0.925	0.0757	1.95	-0.0991
in vitro model: valerate, time point: terminal (~4-5 doublings, model-specific)	0.0841	0.937	-0.0577	0.814	0.0302
